Laboratory results published in article PMC3675134, “Comprehensive Enzymatic Analysis of the Cellulolytic System in Digestive Fluid of the Sea Hare Aplysia kurodai. Efficient Glucose Release from Sea Lettuce by Synergistic Action of 45 kDa Endoglucanase and 210 kDa ß-Glucosidase” (PLoS ONE, 2013).

Tests used:
[1] = test system: T1, 210K ß-glucosidase; assay: 4-methylumbelliferone release, fluorometric; Lineweaver-Burk; assay type: biochemical, Aplysia kurodai; conditions: 37°C
T1 construct: gene 210K BGL; native, purified from digestive fluid; 210 kDa by SDS-PAGE; glycoprotein
From the text: 4-methylumbelliferone release, fluorometric; Lineweaver-Burk on 210K ß-glucosidase

[2] = molecular target: T2, 110K ß-glucosidase (Aplysia kurodai, UniProt A0A1V1FXL2); assay: inhibition of 4MU-ß-glucoside hydrolysis; assay type: biochemical; conditions: substrate 4MU-ß-glucoside; compound name doubtful (preceding sentence speaks of conduritol B epoxide)
T2 construct: gene ApBGL; native, purified from digestive fluid; 110 kDa by SDS-PAGE; glycoprotein

[3] = test system: T1, 210K ß-glucosidase; assay: cellobiose hydrolysis; Lineweaver-Burk; assay type: biochemical, Aplysia kurodai; conditions: read-out: 210 K; 37°C; printed unit doubtful: the printed Vmax/Km scale implies mM; heading: 210 K
[4] = molecular target: T2, 110K ß-glucosidase; assay: inhibition of 4MU-ß-glucoside hydrolysis, fluorometric; Lineweaver-Burk; assay type: biochemical; conditions: substrate 4MU-ß-glucoside; 37°C; competitive
From the text: inhibition of 4MU-ß-glucoside hydrolysis, fluorometric; Lineweaver-Burk on 110K ß-glucosidase

[5] = molecular target: T1, 210K ß-glucosidase; assay: inhibition of 4MU-ß-glucoside hydrolysis, fluorometric; Cornish-Bowden; assay type: biochemical, Aplysia kurodai; conditions: substrate 4MU-ß-glucoside; 37°C; mixed
From the text: inhibition of 4MU-ß-glucoside hydrolysis, fluorometric; Cornish-Bowden on 210K ß-glucosidase

T2 sequence (A0A1V1FXL2 24-994): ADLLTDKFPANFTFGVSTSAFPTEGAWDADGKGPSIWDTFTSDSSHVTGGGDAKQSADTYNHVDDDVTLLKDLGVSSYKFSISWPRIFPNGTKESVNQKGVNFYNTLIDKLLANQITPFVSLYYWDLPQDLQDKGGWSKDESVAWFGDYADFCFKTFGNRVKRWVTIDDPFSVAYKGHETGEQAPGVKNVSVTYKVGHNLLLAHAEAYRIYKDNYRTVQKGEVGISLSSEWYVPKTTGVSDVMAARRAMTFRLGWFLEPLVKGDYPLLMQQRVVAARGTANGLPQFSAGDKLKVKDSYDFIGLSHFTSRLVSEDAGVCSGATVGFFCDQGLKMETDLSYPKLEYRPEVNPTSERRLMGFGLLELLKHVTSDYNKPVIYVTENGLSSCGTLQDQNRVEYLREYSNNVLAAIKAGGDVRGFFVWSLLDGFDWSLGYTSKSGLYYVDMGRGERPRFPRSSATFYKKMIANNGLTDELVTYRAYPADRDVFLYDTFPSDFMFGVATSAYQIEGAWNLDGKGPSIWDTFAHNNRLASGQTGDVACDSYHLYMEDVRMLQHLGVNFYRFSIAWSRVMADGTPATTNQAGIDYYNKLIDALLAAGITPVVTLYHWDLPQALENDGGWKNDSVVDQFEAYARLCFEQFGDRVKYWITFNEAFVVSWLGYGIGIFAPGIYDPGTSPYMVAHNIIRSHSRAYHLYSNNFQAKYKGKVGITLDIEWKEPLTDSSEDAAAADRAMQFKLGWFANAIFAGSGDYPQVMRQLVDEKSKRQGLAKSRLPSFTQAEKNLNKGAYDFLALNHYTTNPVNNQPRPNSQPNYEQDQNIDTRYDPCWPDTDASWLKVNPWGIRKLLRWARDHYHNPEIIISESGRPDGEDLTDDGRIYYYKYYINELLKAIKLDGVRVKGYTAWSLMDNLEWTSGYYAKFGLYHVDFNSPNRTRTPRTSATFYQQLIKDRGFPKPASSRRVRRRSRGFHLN

Molecule: Cc1cc(=O)oc2cc(O[C@@H]3O[C@H](CO)[C@H](O)[C@H](O)[C@H]3O)ccc12 [4MU-ß-galactoside]
- Km [1]: 199 ± 5 µM

Molecule: Conduritol B-sulfate
- % inhibition at 10 mM [2]: 48%

Molecule: Cc1cc(=O)oc2cc(O[C@@H]3O[C@H](CO)[C@@H](O)[C@H](O)[C@H]3O)ccc12 [4MU-ß-glucoside]
- Km [1]: 105 ± 11 µM

Molecule: OC[C@H]1O[C@@H](O[C@H]2[C@H](O)[C@@H](O)C(O)O[C@@H]2CO)[C@H](O)[C@@H](O)[C@@H]1O (stereo partly drawn) [cellobiose]
- Km [3]: 1.93 ± 0.15 mM

Molecule: O=C1O[C@H](CO)[C@@H](O)[C@H](O)[C@H]1O [D-glucono-1,5-lactone]
- Ki [4]: 3.66 ± 0.47 µM
- Ki [5]: 8.1 ± 0.2 µM
